In patent US6410041B1, “Culturing cells in presence of amphipathic weak bases and/or cations and multiple drug resistance inhibitor containing reserpine” (priority 1998, dated 2002):
In brackets after ≈: the same amount, converted by molar mass. Like-named read-outs stand apart in the source and are kept apart here.

Legend:
[1] = system: Staphylococcus aureus KLE 820 (norA−); experiment: microbe, parasite or virus in culture; format: cell-based; conditions: for Sensitivity of norA- as compared to the wild type: in the absence of reserpine
From the text: Disruption of the norA gene. Chloramphenicol acetyltransferase (CAT) gene was isolated by digesting plasmid pLI50 (10) with Sau3A (New England Biolabs). The CAT gene was cloned into the BamHI site of plasmid pSP72 (Promega) to yield plasmid PCH22. Chromosomal DNA from S. aureus RN4220 was isolated according to the protocol of Qiagen, Inc. Part of the 1050 bp norA gene lacking a 80 bp N-terminus and a 20 bp C-terminus was PCR-amplified from chromosomal DNA using primer A:5′-[…]-[…] and primer B:5′-[…]. This fragment was cloned into the EcoRI/EcoRV site of PCH22 to yield plasmid PCH23. S. aureus were transformed by PCH23 using electroporation (11). Cells were plated on trypticase soy agar (TSA) with chloramphenicol. A transformant colony was picked after 24 hours of incubation at 37 C., regrown, plated on CAM medium and a large colony was picked for further work.
(§1) Determination of minimal inhibitory concentrations (MICs). MICs were determined by serial two-fold dilution of antimicrobials in Mueller-Hinton broth containing chloramphenicol ([…]). […] Around 10^5 cells were inoculated in 1 ml of medium for the test. MICs were read after 18 hours of incubation at 37 C. with aeration. The 50% inhibitory concentration (IC50) was determined by growing cells in microtiter plate wells and reading the optical density after overnight growth at 650 nm.

[2] = system: Staphylococcus aureus RN 4222 (WT); experiment: MIC determination in wild type S. aureus; format: cell-based; conditions: for effect of pH 9 on sensitivity / effectiveness: change of pH from 7 to 9
Procedure: as §1

S. aureus = experiment: MICs of antimicrobials with small molecule MDR inhibitor (I) and high pH; format: cell-based, Staphylococcus aureus; conditions: for Potentiation factor (pH 7/(pH 9 + I)): pH 7 vs pH 9 + I; for potentiation by high pH and MDR inhibitor: high pH combined with MDR inhibitor / MDR inactivation
Procedure: as §1

[3] = KLE 820 (norA−), +R (20 μg/mL reserpine)
[4] = Staphylococcus aureus, KLE 820 (norA−), −R (no reserpine)
[5] = Staphylococcus aureus, pH 7.2, KLE 820 (norA−), pH 7.2
[6] = Staphylococcus aureus, pH 9, KLE 820 (norA−), pH 9
[7] = RN 4222 (WT), +R (20 μg/mL reserpine)
[8] = Staphylococcus aureus, RN 4222 (WT), pH 7.2, read-out: MIC
[9] = Staphylococcus aureus, RN 4222 (WT), pH 9, read-out: MIC
[10] = Staphylococcus aureus, RN 4222 (WT), −R (no reserpine), read-out: MIC
[11] = Staphylococcus aureus, pH 7, read-out: MIC
[12] = Staphylococcus aureus, pH 9, read-out: MIC

CCn1cc(C(=O)O)c(=O)c2cc(F)c(N3CCNCC3)cc21 [Norfloxacin] showed an MIC [1, 3] of 0.33 µg/mL (≈ 1.03 µM), an MIC [1, 4] of 0.33 µg/mL (≈ 1.03 µM) and an MIC [1, 5] of 0.33 µg/mL (≈ 1.03 µM). For the same compound, the MIC [1, 6] was 0.33 µg/mL (≈ 1.03 µM), the “Sensitivity of norA- as compared to the wild type” value [1] was 4 and the “Sensitivity norA− at pH 9 vs. WT at pH 7.2” value [1] was 4. The MIC [2, 7] was 0.67 µg/mL (≈ 2.1 µM), the MIC [2, 8] was 1.25 µg/mL (≈ 3.91 µM) and the MIC [2, 9] was 1.25 µg/mL (≈ 3.91 µM). It also gave an MIC [2, 10] of 1.25 µg/mL (≈ 3.91 µM).
With Benzalkonium Chloride the MIC ([1]; KLE 820 (norA−), pH 7.2) was 0.16 µg/mL, the MIC ([1]; KLE 820 (norA−), pH 9) was 0.0104 µg/mL and the “Sensitivity norA− at pH 9 vs. WT at pH 7.2” value [1] was 64. The MIC ([2]; RN 4222 (WT), pH 7.2) was 0.67 µg/mL, the MIC ([2]; RN 4222 (WT), pH 9) was 0.08 µg/mL and the “effect of pH 9 on sensitivity / effectiveness” value [2] was “significantly increased the effectiveness”. It also gave an MIC (S. aureus; pH 7) of 0.67 µg/mL, an MIC (S. aureus; pH 7 + I (10 μg/mL)) of 0.08 µg/mL and a Ratio (S. aureus; pH 7 vs pH 7 + I) of 8.3. For the same compound, the “Potentiation factor (pH 7/(pH 9 + I))” value (S. aureus) was 134, the MIC (S. aureus; pH 9) was 0.16 µg/mL and the MIC (S. aureus; pH 9 + I) was <0.005 µg/mL. For the same compound, the Ratio (S. aureus; pH 9 vs pH 9 + I) was 32.
[Br-].c1ccc([P+](c2ccccc2)(c2ccccc2)c2ccccc2)cc1 [TPP, tetraphenylphosphonium bromide] was tested, and the MIC [1, 3] was 1.9 µg/mL, the MIC [1, 4] was 1.9 µg/mL and the MIC [1, 5] was 1.98 µg/mL. The MIC [1, 6] was 0.12 µg/mL, the “Sensitivity of norA- as compared to the wild type” value [1] was 8 and the “Sensitivity norA− at pH 9 vs. WT at pH 7.2” value [1] was 130. The MIC [2, 7] was 7.8 µg/mL, the MIC ([2]; Staphylococcus aureus) was 15.6 µg/mL and the MIC ([2]; Staphylococcus aureus, pH 7.2) was 15.6 µg/mL. The MIC ([2]; Staphylococcus aureus, pH 9) was 0.48 µg/mL.
CC[n+]1c(-c2ccccc2)c2cc(N)ccc2c2ccc(N)cc21 [EtBr, ethidium bromide] was tested, and the MIC [1, 3] was 0.33 µg/mL, the MIC [1, 4] was 0.33 µg/mL and the MIC [1, 5] was 0.312 µg/mL. For the same compound, the MIC [1, 6] was 0.01 µg/mL, the “Sensitivity of norA- as compared to the wild type” value [1] was 16 and the “Sensitivity norA− at pH 9 vs. WT at pH 7.2” value [1] was 500. The MIC [2, 7] was 1.25 µg/mL, the MIC ([2]; Staphylococcus aureus) was 5 µg/mL and the MIC ([2]; Staphylococcus aureus, pH 7.2) was 5 µg/mL. For the same compound, the MIC ([2]; Staphylococcus aureus, pH 9) was 0.078 µg/mL.
CC[C@H]1OC(=O)[C@H](C)[C@@H](O[C@H]2C[C@@](C)(OC)[C@@H](O)[C@H](C)O2)[C@H](C)[C@@H](O[C@@H]2O[C@H](C)C[C@H](N(C)C)[C@H]2O)[C@](C)(O)C[C@@H](C)C(=O)[C@H](C)[C@@H](O)[C@]1(C)O [Erythromycin] was tested, and the MIC [1, 4] was 0.195 µg/mL (≈ 0.266 µM), the “Sensitivity of norA- as compared to the wild type” value [1] was 1 and the MIC ([2]; Staphylococcus aureus) was 0.195 µg/mL (≈ 0.266 µM).
CCC[C@@H]1C[C@@H](C(=O)N[C@@H]([C@H]2O[C@H](SC)[C@H](O)[C@@H](O)[C@H]2O)[C@@H](C)O)N(C)C1 [Lincomycin] was tested, and the “Sensitivity of norA- as compared to the wild type” value [1] was 1 and the MIC [2, 10] was 0.6 µg/mL (≈ 1.48 µM).
Compound O=C(O)c1cn(C2CC2)c2cc(N3CCNCC3)c(F)cc2c1=O [Ciprofloxacin] has an MIC [2, 7] of 0.33 µg/mL (≈ 0.996 µM) and an MIC [2, 10] of 0.67 µg/mL (≈ 2.02 µM).
COc1cc2c(cc1OC)-c1cc3ccc(OC)c(OC)c3c[n+]1CC2 [Palmatine] was tested, and the MIC ([1]; KLE 820 (norA−), pH 7.2) was 50 µg/mL, the MIC ([1]; KLE 820 (norA−), pH 9) was 0.78 µg/mL and the “substrate of NorA” value ([1]; based on comparison of MIC from wild type and norA−) was “substrates of NorA”. The MIC ([2]; RN 4222 (WT), pH 7.2) was 200 µg/mL, the MIC ([2]; RN 4222 (WT), pH 9) was 12.5 µg/mL and the “substrate of MDR pumps” value (S. aureus; cationic plant antimicrobial alkaloids) was “good substrates of MDR pumps”. For the same compound, the MIC (S. aureus; pH 7) was 100 µg/mL, the MIC (S. aureus; pH 7 + I (10 μg/mL)) was 1.6 µg/mL and the “Potentiation factor (pH 7/(pH 9 + I))” value (S. aureus) was 1,250. For the same compound, the MIC (S. aureus; pH 9) was 25 µg/mL and the MIC (S. aureus; pH 9 + I) was 0.08 µg/mL.
In the case of [H]/N=C(\N/C(=N/[H])NCCCCCCNC(=N)NC(=N)Nc1ccc(Cl)cc1)Nc1ccc(Cl)cc1 [Chlorhexidine], the MIC [1, 5] is reported as 0.125 µg/mL (≈ 0.247 µM), the MIC [1, 6] is reported as 0.0156 µg/mL (≈ 0.0309 µM) and the “Sensitivity norA− at pH 9 vs. WT at pH 7.2” value [1] is reported as 32. For the same compound, the MIC [2, 8] was 0.5 µg/mL (≈ 0.989 µM), the MIC [2, 9] was 0.06 µg/mL (≈ 0.119 µM) and the “effect of pH 9 on sensitivity / effectiveness” value [2] was “significantly increased the effectiveness”. For the same compound, the MIC (S. aureus; [11]) was 0.5 µg/mL (≈ 0.989 µM), the MIC (S. aureus; [12]) was 0.12 µg/mL (≈ 0.237 µM) and the “potentiation by high pH and MDR inhibitor” value (S. aureus) was 133 fold. For the same compound, the MIC (S. aureus; pH 7 + I (10 μg/mL)) was 0.06 µg/mL, the Ratio (S. aureus; pH 7 vs pH 7 + I) was 8.3 and the “Potentiation factor (pH 7/(pH 9 + I))” value (S. aureus) was 133. It also gave an MIC (S. aureus; pH 9 + I) of 0.0037 µg/mL and a Ratio (S. aureus; pH 9 vs pH 9 + I) of 32.
In the case of C[n+]1cc2c3c(ccc2c2ccc4cc5c(cc4c21)OCO5)OCO3 [Sanguinarine], the MIC (S. aureus; [11]) is reported as 2.5 µg/mL, the MIC (S. aureus; [12]) is reported as 1.25 µg/mL and the “potentiation by high pH and MDR inhibitor” value (S. aureus) is reported as “approximately 100 fold”. The MIC (S. aureus; pH 7 + I (10 μg/mL)) was 0.67 µg/mL, the Ratio (S. aureus; pH 7 vs pH 7 + I) was 3.7 and the “Potentiation factor (pH 7/(pH 9 + I))” value (S. aureus) was 16.6. For the same compound, the MIC (S. aureus; pH 9 + I) was 0.15 µg/mL and the Ratio (S. aureus; pH 9 vs pH 9 + I) was 8.3.
COc1ccc(C[C@H](N)C(=O)N[C@H]2[C@@H](O)[C@H](n3cnc4c(N(C)C)ncnc43)O[C@@H]2CO)cc1 [Puromycin] was tested, and the “Sensitivity norA− at pH 9 vs. WT at pH 7.2” value [1] was 8, the MIC [2, 8] was 20 µg/mL (≈ 42.4 µM) and the MIC [2, 9] was 2.5 µg/mL (≈ 5.3 µM).
